Experimental findings from patent publication US8147880B2, “Polyacetylenic compounds for stimulating insulin gene exression, production and secretion” (Academia Sinica, priority 2007, dated 2012) are described below.

The subject of test [1] is RIN-m5F cells. Briefly: Cytopiloyne-induced insulin secretion after pre-treatment with channel modulators / calcium chelator. The format is cell-based, rat. To be noted: then cytopiloyne 5 μg/ml for 10 min. As for the experimental part:
RIN-[…] cells were pre-treated with vehicle, diazoxide (100 μM), EGTA (10 μM), or nimodipine (1 μM) for 30 minutes. They were then incubated with cytopiloyne at 5 μg/ml for 10 min. Insulin levels in the cell medium were determined using an insulin Elisa kit.

Test [2] deals with db/db mice. In words: Intraperitoneal glucose tolerance test in diabetic db/db mice after oral administration. In kind it is in vivo. The settings on record: db/db mice fasted 12 hours, glucose 0.5 g/kg i.p. half an hour later, vs PBS. As for the experimental part: The db/db mice were purchased from Jackson Laboratory, and then maintained and handled according to the guidelines of Academia Sinica Institutional Animal Care and Utilization Committee (Taiwan). Glibenclamide was purchased from MP Biomedical Inc.
Diabetic db/db mice aged 7-8 weeks were fasted for 12 hours (water allowed) and orally administered with PBS, cytopiloyne at 0.5 mg/kg or Glimepiride at 2.5 mg/kg. Half an hour later, the mice were intraperitoneally injected with glucose at 0.5 g/kg body weight. Blood glucose levels were monitored at 0, 0.5, 1, 1.5, 2 and 3 hours using Elite glucometer.

Test [3] has as its system db/db mice. Briefly: Blood glucose levels in fasted diabetic db/db mice after intraperitoneal injection. The format is in vivo. The settings on record: db/db mice 7-8 weeks old, fasted 12 hours; 25 μg/kg intraperitoneally; at two hours; vs PBS. The method, then:
The db/db mice were purchased from Jackson Laboratory (Bar Harbor, Me., U.S.A.), and then maintained and handled according to the guidelines of Academia Sinica Institutional Animal Care and Utilization Committee (Taiwan).
Diabetic db/db mice of 7-8 weeks old were fasted for 12 hours (water allowed), and then intraperitoneally injected with phosphate-buffered saline (PBS) or cytopiloyne at 25 μg/kg, blood glucose levels in the mice were monitored at 0, 1, 2, 4, and 6 hours using Elite glucometer.

Test [4] has as its system RIN-m5F cells. Briefly: Insulin secretion into cell medium (insulin Elisa kit). In kind it is cell-based, rat. The settings on record: 2.5, 10, and 15 μg/mL for 24 hours. The method, then: RIN-m5F cells, a rat β cell line, were obtained from the American Type Culture Collection (ATCC). Glucose-free RPMI medium was purchased from Life Technology. The cells were grown in a glucose-free RPMI 1640 medium supplemented with 10% FCS, penicillin (100 U/ml), streptomycin (100 μg/ml), 2-mercapoethanol (50 μM), sodium pyruvate (1 mM), and glutamate (292 μg/ml).
The cells were separately incubated with vehicle, glucose at a high dose (16.7 mM), glucose at a low dose (3.6 mM), and cytopiloyne at 2.5, 10, and 15 μg/mL for 24 hours. Insulin levels in the cell medium were determined using an insulin Elisa kit (Mercodia, Uppsala, Sweden).

The test system of another test is human insulin promoter. In words: Insulin promoter luciferase reporter (pINS-Luc / pRL-TK) in transfected RIN-m5F cells. The format is cell-based. The settings on record: 2.5, 10, or 15 μg/ml for 24 hours. As for the experimental part:
The pINS-DCR3 vector containing a human insulin promoter was digested by SphI and BamHI and then cloned into a pcDNAΔCMVlue vector to generate the plasmid pINS-Luc. The plasmid pRL-TK containing a thymidine kinase promoter and a Renilla luciferase reporter gene was purchased from Promega.
RIN-m5F cells transfected with pINS-Luc and pRL-TK plasmids were incubated with vehicle, high glucose (16.7 mM), or cytopiloyne at 2.5, 10, or 15 μg/ml for 24 hours.

For test [5], the system named is Primary β cells from mice. Briefly: Insulin levels (intracellular anti-insulin staining, Elisa) in primary β cells. In kind it is cell-based. The settings on record: mouse primary β cells; 2.5, 5, or 10 μg/ml for 24 hours; vs vehicle. The method, then:
(§1) Primary β cells from mice were seeded in 9-cm^2 plates in a glucose-free RPMI 1640 medium. Both mouse primary β cells and RIN-m5F cells were treated with vehicle or cytopiloyne at 2.5, 5, or 10 μg/ml for 24 hours. The treated cells were subsequently subjected to intracellular staining with anti-insulin antibody (H86, Santa Cruz Biotechnology, CA, USA) and FITC-conjugated anti-rabbit antiserum (BD Biosciences, CA, USA) according to the manufacturer's instruction. The insulin levels in the cell media were determined using an insulin Elisa kit.

Test [6] has as its system RIN-m5F cells. Briefly: Insulin levels (intracellular anti-insulin staining, Elisa) in RIN-m5F cells. In kind it is cell-based, rat. The settings on record: 2.5, 5, or 10 μg/ml for 24 hours, vs vehicle. As for the experimental part:
as §1

As for `O=C(O)CN(CCOCCOCCN(CC(=O)O)CC(=O)O)CC(=O)O` [EGTA], in the test with RIN-m5F cells [1] (pre-treatment 10 μM for 30 minutes), the “effect on cytopiloyne-mediated insulin secretion” value is given as “suppressed cytopiloyne-mediated insulin secretion”.

On to `CCC1=C(C)CN(C(=O)NCCc2ccc(S(=O)(=O)NC(=O)N[C@H]3CC[C@H](C)CC3)cc2)C1=O` [Glimepiride, reference compound], for which the glucose tolerance result in the test on db/db mice [2] (2.5 mg/kg orally) is given as “improved glucose tolerance”.

For the molecule `CC#CC#CC#CC#CCCC(CO)OC1OC(CO)C(O)C(O)C1O` (stereo not drawn) [cytopiloyne], the blood glucose levels result in the test with db/db mice [3] is “significantly decreased”. Further, the glucose tolerance entry with db/db mice [2] (0.5 mg/kg orally) was “improved glucose tolerance as effectively as Glimepiride”. In the test with RIN-m5F cells [4], the insulin secretion entry is listed as “significantly enhanced insulin secretion”. Moreover, in the test with human insulin promoter, the insulin transcription result is reported as “stimulated insulin transcription in RIN-m5F cells in a dose-dependent manner”. Besides, the insulin levels entry (in test [5]; in the test on RIN-m5F cells [6]) was “elevated insulin levels” each time.

Take `CC1=NS(=O)(=O)c2cc(Cl)ccc2N1` [diazoxide]: the “effect on cytopiloyne-induced insulin secretion” value with RIN-m5F cells [1] (pre-treatment 100 μM for 30 minutes) is recorded as “suppressed cytopiloyne-induced insulin secretion”.
